Results published in patent US10336792B2, “Antimicrobial peptide dendrimers” (priority 2014, dated 2019).
Converted amounts (≈) assume the structure as drawn. Positions of bridges follow the written chain, without caps; N, C: chain ends. Non-standard residues stand in square brackets, D forms with d. Residues, ends and D or L forms follow the SMILES beside them. Groups on a side chain read outwards from the residue. Chains are numbered I, II in the order given. *: point of attachment. Octanoyl = CCCCCCCC(=O)*; Dab = NCC[C@H](N)C(=O)O; Dap = NC[C@H](N)C(=O)O

Experiments:
Assay type in all cases: cell-based
[1] = test system: Pseudomonas aeruginosa (strain PA01); assay: microbe, parasite or virus in culture; settings: strain
How it was run: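 P. aeruginosa PAO1 grown overnight in LB, diluted to OD600 0.001 and mixed with ⅔-step peptide dilutions, then incubated at 37 °C for 18–24 h. After MTT staining, the lowest concentration with no visible growth was read by eye as the MIC.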

[2] = test system: Bacillus subtilis (strain BR151); settings: strain BR151
How it was run: (§1)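 Broth microdilution MIC in LB; overnight cultures diluted to OD600 0.001 and mixed 1:1 with ⅔-serially diluted samples (stock 1 mg mL^−1 in H2O), 37° C for 18-24 h. MTT (0.1%) added; MIC read by eye as lowest concentration inhibiting visible growth (yellow).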

[3] = test system: Escherichia coli (strain DH5α); settings: DH5α
How it was run: as §1

| SMILES | MIC P. aeruginosa PAO1 [1] | MIC B. subtilis BR151 [2] | MIC E. coli DH5α [3] |
| --- | --- | --- | --- |
| CC(C)C[C@H](NC(=O)[C@H](CC(C)C)NC(=O)[C@H](CCCCNC(=O)[C@H](CCCCN)NC(=O)[C@H](CCCCN)NC(=O)[C@H](CCCCNC(=O)[C@H](CC(C)C)NC(=O)[C@@H](N)CC(C)C)NC(=O)[C@H](CC(C)C)NC(=O)[C@@H](N)CC(C)C)NC(=O)[C@H](CCCCN)NC(=O)[C@H](CCCCN)NC(=O)[C@H](CCCCNC(=O)[C@H](CC(C)C)NC(=O)[C@@H](N)CC(C)C)NC(=O)[C@H](CC(C)C)NC(=O)[C@@H](N)CC(C)C)C(=O)NCCCC[C@H](NC(=O)[C@H](CC(C)C)NC(=O)[C@H](CC(C)C)NC(=O)[C@H](CCCCNC(=O)[C@H](CCCCN)NC(=O)[C@H](CCCCN)NC(=O)[C@H](CCCCNC(=O)[C@H](CC(C)C)NC(=O)[C@@H](N)CC(C)C)NC(=O)[C@H](CC(C)C)NC(=O)[C@@H](N)CC(C)C)NC(=O)[C@H](CCCCN)NC(=O)[C@H](CCCCN)NC(=O)[C@H](CCCCNC(=O)[C@H](CC(C)C)NC(=O)[C@@H](N)CC(C)C)NC(=O)[C@H](CC(C)C)NC(=O)[C@@H](N)CC(C)C)C(=O)N[C@@H](CCCCN)C(=O)N[C@@H](CCCCN)C(N)=O [MSt-180, (LL)8(KKK)4(KLL)2(KKK)] (I: H-LLK([Leu-Leu])KKKLLKKK-NH2 / II: H-LLK([Leu-Leu])KKKLL / III: H-LLK([Leu-Leu])KK / IV: H-LLK([Leu-Leu])KK; amide I:6-IV:C, I:9-II:C, II:6-III:C) | 12 µg/mL (≈ 2.69 µM) | 3 µg/mL (≈ 0.673 µM) | >62 µg/mL |
| NCCCC[C@H](NC(=O)[C@H](CCCCNC(=O)[C@H](Cc1c[nH]c2ccccc12)NC(=O)[C@H](CCCCN)NC(=O)[C@H](CCCCNC(=O)[C@H](Cc1c[nH]c2ccccc12)NC(=O)[C@H](CCCCN)NC(=O)[C@H](CCCCNC(=O)[C@H](Cc1c[nH]c2ccccc12)NC(=O)[C@@H](N)CCCCN)NC(=O)[C@H](Cc1c[nH]c2ccccc12)NC(=O)[C@@H](N)CCCCN)NC(=O)[C@H](Cc1c[nH]c2ccccc12)NC(=O)[C@H](CCCCN)NC(=O)[C@H](CCCCNC(=O)[C@H](Cc1c[nH]c2ccccc12)NC(=O)[C@@H](N)CCCCN)NC(=O)[C@H](Cc1c[nH]c2ccccc12)NC(=O)[C@@H](N)CCCCN)NC(=O)[C@H](Cc1c[nH]c2ccccc12)NC(=O)[C@H](CCCCN)NC(=O)[C@H](CCCCNC(=O)[C@H](Cc1c[nH]c2ccccc12)NC(=O)[C@H](CCCCN)NC(=O)[C@H](CCCCNC(=O)[C@H](Cc1c[nH]c2ccccc12)NC(=O)[C@@H](N)CCCCN)NC(=O)[C@H](Cc1c[nH]c2ccccc12)NC(=O)[C@@H](N)CCCCN)NC(=O)[C@H](Cc1c[nH]c2ccccc12)NC(=O)[C@H](CCCCN)NC(=O)[C@H](CCCCNC(=O)[C@H](Cc1c[nH]c2ccccc12)NC(=O)[C@@H](N)CCCCN)NC(=O)[C@H](Cc1c[nH]c2ccccc12)NC(=O)[C@@H](N)CCCCN)C(=O)N[C@@H](Cc1c[nH]c2ccccc12)C(N)=O [MSt-172, (KW)8(KKW)4(KKW)2(KKW)] (I: H-KWK([Trp-Lys])KWKKWKKW-NH2 / II: H-KWK([Trp-Lys])KWKKW / III: H-KWK([Trp-Lys])KW / IV: H-KWK([Trp-Lys])KW; amide I:6-IV:C, I:9-II:C, II:6-III:C; N-terminus assumed) | 12 µg/mL (≈ 2.13 µM) | 6 µg/mL (≈ 1.07 µM) | 7 µg/mL (≈ 1.24 µM) |
| CC(C)C[C@H](NC(=O)[C@H](CCN)NC(=O)[C@H](CCCCNC(=O)[C@H](Cc1c[nH]c2ccccc12)NC(=O)[C@H](CCN)NC(=O)[C@H](CCCCNC(=O)[C@H](CC(C)C)NC(=O)[C@@H](N)CCN)NC(=O)[C@H](CC(C)C)NC(=O)[C@@H](N)CCN)NC(=O)[C@H](Cc1c[nH]c2ccccc12)NC(=O)[C@H](CCN)NC(=O)[C@H](CCCCNC(=O)[C@H](CC(C)C)NC(=O)[C@@H](N)CCN)NC(=O)[C@H](CC(C)C)NC(=O)[C@@H](N)CCN)C(=O)NCCCC[C@H](NC(=O)[C@H](CC(C)C)NC(=O)[C@H](CCN)NC(=O)[C@H](CCCCNC(=O)[C@H](Cc1c[nH]c2ccccc12)NC(=O)[C@H](CCN)NC(=O)[C@H](CCCCNC(=O)[C@H](CC(C)C)NC(=O)[C@@H](N)CCN)NC(=O)[C@H](CC(C)C)NC(=O)[C@@H](N)CCN)NC(=O)[C@H](Cc1c[nH]c2ccccc12)NC(=O)[C@H](CCN)NC(=O)[C@H](CCCCNC(=O)[C@H](CC(C)C)NC(=O)[C@@H](N)CCN)NC(=O)[C@H](CC(C)C)NC(=O)[C@@H](N)CCN)C(=O)N[C@@H](CCN)C(=O)N[C@@H](Cc1c[nH]c2ccccc12)C(N)=O [MSt-202, (DabL)8(KDabW)4(KDabL)2(KDabW)] (I: H-[Dab]LK([Leu-Dab])[Dab]WK[Dab]LK[Dab]W-NH2 / II: H-[Dab]LK([Leu-Dab])[Dab]WK[Dab]L / III: H-[Dab]LK([Leu-Dab])[Dab]W / IV: H-[Dab]LK([Leu-Dab])[Dab]W; amide I:6-IV:C, I:9-II:C, II:6-III:C; N-terminus assumed) | 2 µg/mL (≈ 0.447 µM) | 1 µg/mL (≈ 0.223 µM) | 1 µg/mL (≈ 0.223 µM) |

Second part, the molecule after the results:

| MIC P. aeruginosa PAO1 [1] | MIC B. subtilis BR151 [2] | MIC E. coli DH5α [3] | SMILES |
| --- | --- | --- | --- |
| 1 µg/mL (≈ 0.209 µM) | 4 µg/mL (≈ 0.835 µM) | 1 µg/mL (≈ 0.209 µM) | CCCCCCCC(=O)NCCCC[C@H](NC(=O)[C@H](CC(C)C)NC(=O)[C@H](CCCCN)NC(=O)[C@H](CCCCNC(=O)[C@H](CC(C)C)NC(=O)[C@H](CCCCN)NC(=O)[C@H](CCCCNC(=O)[C@H](CC(C)C)NC(=O)[C@H](CCCCN)NC(=O)[C@H](CCCCNC(=O)[C@H](CC(C)C)NC(=O)[C@@H](N)CCCCN)NC(=O)[C@H](CC(C)C)NC(=O)[C@@H](N)CCCCN)NC(=O)[C@H](CC(C)C)NC(=O)[C@H](CCCCN)NC(=O)[C@H](CCCCNC(=O)[C@H](CC(C)C)NC(=O)[C@@H](N)CCCCN)NC(=O)[C@H](CC(C)C)NC(=O)[C@@H](N)CCCCN)NC(=O)[C@H](CC(C)C)NC(=O)[C@H](CCCCN)NC(=O)[C@H](CCCCNC(=O)[C@H](CC(C)C)NC(=O)[C@H](CCCCN)NC(=O)[C@H](CCCCNC(=O)[C@H](CC(C)C)NC(=O)[C@@H](N)CCCCN)NC(=O)[C@H](CC(C)C)NC(=O)[C@@H](N)CCCCN)NC(=O)[C@H](CC(C)C)NC(=O)[C@H](CCCCN)NC(=O)[C@H](CCCCNC(=O)[C@H](CC(C)C)NC(=O)[C@@H](N)CCCCN)NC(=O)[C@H](CC(C)C)NC(=O)[C@@H](N)CCCCN)C(N)=O [MSt-265, (KL)8(KKL)4(KKL)2(KKLKC8)] (I: H-KLK([Leu-Lys])KLKKLKKLK(Octanoyl)-NH2 / II: H-KLK([Leu-Lys])KLKKL / III: H-KLK([Leu-Lys])KL / IV: H-KLK([Leu-Lys])KL; amide I:6-IV:C, I:9-II:C, II:6-III:C) |
| 7 µg/mL (≈ 1.5 µM) | 4 µg/mL (≈ 0.858 µM) | 3 µg/mL (≈ 0.644 µM) | CC(C)C[C@H](NC(=O)[C@H](CCCNC(=N)N)NC(=O)[C@H](CNC(=O)[C@H](CC(C)C)NC(=O)[C@H](CCCNC(=N)N)NC(=O)[C@H](CNC(=O)[C@H](CC(C)C)NC(=O)[C@H](CCCNC(=N)N)NC(=O)[C@H](CNC(=O)[C@H](CC(C)C)NC(=O)[C@@H](N)CCCNC(=N)N)NC(=O)[C@H](CC(C)C)NC(=O)[C@@H](N)CCCNC(=N)N)NC(=O)[C@H](CC(C)C)NC(=O)[C@H](CCCNC(=N)N)NC(=O)[C@H](CNC(=O)[C@H](CC(C)C)NC(=O)[C@@H](N)CCCNC(=N)N)NC(=O)[C@H](CC(C)C)NC(=O)[C@@H](N)CCCNC(=N)N)NC(=O)[C@H](CC(C)C)NC(=O)[C@H](CCCNC(=N)N)NC(=O)[C@H](CNC(=O)[C@H](CC(C)C)NC(=O)[C@H](CCCNC(=N)N)NC(=O)[C@H](CNC(=O)[C@H](CC(C)C)NC(=O)[C@@H](N)CCCNC(=N)N)NC(=O)[C@H](CC(C)C)NC(=O)[C@@H](N)CCCNC(=N)N)NC(=O)[C@H](CC(C)C)NC(=O)[C@H](CCCNC(=N)N)NC(=O)[C@H](CNC(=O)[C@H](CC(C)C)NC(=O)[C@@H](N)CCCNC(=N)N)NC(=O)[C@H](CC(C)C)NC(=O)[C@@H](N)CCCNC(=N)N)C(N)=O [MSt-137, (RL)8(BRL)4(BRL)2(BRL)] (I: H-RL[Dap]([Leu-Arg])RL[Dap]RL[Dap]RL-NH2 / II: H-RL[Dap]([Leu-Arg])RL[Dap]RL / III: H-RL[Dap]([Leu-Arg])RL / IV: H-RL[Dap]([Leu-Arg])RL; amide I:6-IV:C, I:9-II:C, II:6-III:C) |
| 11 µg/mL (≈ 2.22 µM) | 6 µg/mL (≈ 1.21 µM) | 4 µg/mL (≈ 0.807 µM) | CC(C)C[C@@H](NC(=O)[C@@H](CCCNC(=N)N)NC(=O)[C@@H](CCCCNC(=O)[C@@H](CC(C)C)NC(=O)[C@@H](CCCNC(=N)N)NC(=O)[C@@H](CCCCNC(=O)[C@@H](CC(C)C)NC(=O)[C@@H](CCCNC(=N)N)NC(=O)[C@@H](CCCCNC(=O)[C@@H](CC(C)C)NC(=O)[C@H](N)CCCNC(=N)N)NC(=O)[C@@H](CC(C)C)NC(=O)[C@H](N)CCCNC(=N)N)NC(=O)[C@@H](CC(C)C)NC(=O)[C@@H](CCCNC(=N)N)NC(=O)[C@@H](CCCCNC(=O)[C@@H](CC(C)C)NC(=O)[C@H](N)CCCNC(=N)N)NC(=O)[C@@H](CC(C)C)NC(=O)[C@H](N)CCCNC(=N)N)NC(=O)[C@@H](CC(C)C)NC(=O)[C@@H](CCCNC(=N)N)NC(=O)[C@@H](CCCCNC(=O)[C@@H](CC(C)C)NC(=O)[C@@H](CCCNC(=N)N)NC(=O)[C@@H](CCCCNC(=O)[C@@H](CC(C)C)NC(=O)[C@H](N)CCCNC(=N)N)NC(=O)[C@@H](CC(C)C)NC(=O)[C@H](N)CCCNC(=N)N)NC(=O)[C@@H](CC(C)C)NC(=O)[C@@H](CCCNC(=N)N)NC(=O)[C@@H](CCCCNC(=O)[C@@H](CC(C)C)NC(=O)[C@H](N)CCCNC(=N)N)NC(=O)[C@@H](CC(C)C)NC(=O)[C@H](N)CCCNC(=N)N)C(N)=O [MSt-155, (rl)8(krl)4(krl)2(krl)] (I: H-[dR][dL][dK]([dL-dR])[dR][dL][dK][dR][dL][dK][dR][dL]-NH2 / II: H-[dR][dL][dK]([dL-dR])[dR][dL][dK][dR][dL] / III: H-[dR][dL][dK]([dL-dR])[dR][dL] / IV: H-[dR][dL][dK]([dL-dR])[dR][dL]; amide I:6-IV:C, I:9-II:C, II:6-III:C) |
